Source: US12714711B2, “Salts of neuroceuticals and uses thereof” (priority 2020, dated 2026)
“Also recorded” adds a separate entry of the source. Read-outs that look alike come from different tables or passages of the source.

Experiments:
[1] = Water solubility at 25° C.; conditions: 25° C.
MK-801 treated mice = test: Open field test, MK-801 induced hyper-locomotion; conditions: for Recovery rate (%): MK801-treated mice; for locomotor activity in MK-801 treated mice: MK-801 0.2 mg/kg i.p.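 As to all read-outs here: adult male C57BL/6J mice, locomotion counted as total photobeam breaks over 60 minutes in an open field photobeam activity system.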
Description: All mice were tested with open field task.
In this study, the mice were placed in a Plexiglas cage (37.5 cm×21.5 cm×18 cm) under 50-65 lux light intensity. Their spontaneous locomotor activities were measured for 60 minutes using the Photobeam Activity System (PAS)-open field (San Diego Instruments, San Diego, Calif., USA). The total number of photo beam breaks of each mouse was measured as an index of locomotor activity.
The schizophrenia-like behavior, MK801-induced hyperactivity, were tested by open field task.
All mice were tested in an open field task.
The schizophrenia-like behavior, NMDA-hypofunction-induced hyperactivity, were tested by open field task.
The amount of paliperidone administered to Groups 3 and 4 was equal. The schizophrenia-like behavior, MK801-induced hyperactivity, were tested by open field task.
The amount of paliperidone administered to Groups 3 and 4 was equal. The schizophrenia-like behavior, NMDA-hypofunction-induced hyperactivity, were tested by open field task.

[2] = Stress study at 40° C./75% relative humidity in a closed system, HPLC analysis; conditions: 40° C./75% RH, 30 days, in the presence of free benzoic acid
[3] = fasting glucose
Description: The testing compounds were administered to mice either through intraperitoneal (i.p.) injection or oral gavage before analyzing blood glucose levels.
For the acute study, two cohorts of mice were used.
For repeated-dose study, mice were randomly assigned into five groups as listed below. • Group 1: Vehicle control • Group 2: Clz (3 mg/kg) • Group 3: Clz:NA 1:1 salt (4.13 mg/kg) • Group 4: Clz (10 mg/kg) • Group 5: Clz:NA 1:1 salt (13.77 mg/kg)
The night before blood glucose levels were measured, the mice were fasted. Blood glucose levels were measured with a portable glucose meter (Contour® Plus, Bayer AG, Leverkusen, Germany) After waiting for 60 min, the treatments indicated above were administered. FIG. 75 illustrates the experimental design of this study.
Two cohorts of mice were used in this study. In cohort 1, mice were randomly assigned into the five groups listed below: • Group 1: Vehicle control • Group 2: NA (3.94 mg/kg) • Group 3: Olz (10 mg/kg) • Group 4: Olz (10 mg/kg)+NA (3.94 mg/kg) • Group 5: Olz:NA 1:1 salt (13.94 mg/kg)
Dosing occurred 60 min prior to measuring blood glucose levels.
In cohort 2, mice were randomly assigned into the five groups listed below: • Group 1: Vehicle control • Group 2: Olz (5 mg/kg) • Group 3: Olz:NA 1:1 salt (6.97 mg/kg) • Group 4: Olz (10 mg/kg) • Group 5: Olz:NA 1:1 salt (13.94 mg/kg)
The night before the glucose tolerance test, the mice fasted. Blood glucose levels were measured in whole blood that was collected from the mouse's tail vein. Glucose levels were measured with a portable glucose meter (Contour® Plus, Bayer AG, Leverkusen, Germany), with the measurement occurring 60 min after the mice were dosed with the treatments indicated above Immediately following the glucose measurement, all mice were subjected to a glucose tolerance test, which involved an intraperitoneal challenge injection of 1 g/kg of glucose, followed by measuring blood glucose levels at 0, 30, 60 and 120 minutes.

[4] = for blood glucose levels during glucose tolerance test compared to vehicle: mice
Description: For the acute study, mice were randomly assigned into one of the five groups listed below. • Group 1: Vehicle control • Group 2: NA (3.77 mg/kg) • Group 3: Clz (10 mg/kg) • Group 4: Clz (10 mg/kg)+NA (3.77 mg/kg) • Group 5: Clz:NA 1:1 salt (13.77 mg/kg)
For the repeated dose study, two cohorts of mice were used. In cohort 1, mice were randomly assigned into one of the three groups listed below. • Group 1: Vehicle control • Group 2: Clz (10 mg/kg) • Group 3: Clz:NA 1:1 salt (13.77 mg/kg)
In cohort 2, the mice were randomly assigned into one of the three groups listed below. • Group 1: Vehicle control • Group 2: Clz (3 mg/kg) • Group 3: Clz:NA 1:1 salt (4.13 mg/kg)
To assess glucose tolerance, mice were fasted overnight on day 18 (for cohort 1) and on day 35 (for cohort 2), and their blood glucose response to i.p. administration of glucose (2 g/kg) was determined. Blood glucose levels were assessed in the whole blood collected from the tail vein, 60 min after drug administration Immediately following this glucose measurement, all mice were subjected to a glucose tolerance test by receiving an intraperitoneal challenge injection of 2 g/kg of glucose, and blood glucose levels were measured at 0, 30, 60 and 120 minutes.
Mice used in this study were randomly assigned into one of the six following groups: • Group 1: Vehicle control • Group 2: Clz (10 mg/kg) • Group 3: Clz (10 mg/kg)+enriched TA (22.5 mg/kg) • Group 4: Clz (10 mg/kg)+enriched TA (11.3 mg/kg) • Group 5: Clz:enriched TA 2:1 salt (32.5 mg/kg) • Group 6: Clz:enriched TA 4:1 salt (21.3 mg/kg)
One day before the glucose tolerance test, the mice fasted overnight and the blood glucose levels were measured in whole blood collected from the tail vein. Glucose levels were measured using a portable glucose meter (Contour® Plus, Bayer AG, Leverkusen, Germany) 60 min after they were acutely administered with the treatments indicated above Immediately following this glucose measurement, all mice were subjected to a glucose tolerance test by receiving an intraperitoneal challenge injection of 2 g/kg of glucose. Blood glucose levels were measured at 30, 60 and 120 minutes.
Two cohorts of mice were used in this study. […]

[5] = Carr Index (USP 1174), flowability; format: physicochemical

CN1CCN(C2=Nc3cc(Cl)ccc3Nc3ccccc32)CC1.O=C(O)c1ccccc1 [clozapine:benzoic acid 1:1 salt]
water solubility [1]: 1.58 mg/mL
Recovery rate (%) (MK-801 treated mice; dosage of clozapine 1 mg/kg (benzoic acid salt study)): 85.8%
Degradation during the stress study (HPLC before vs after) [2]: did not degrade; also recorded: more stable than clozapine

Cc1cc2c(s1)Nc1ccccc1N=C2N1CCN(C)CC1.O=C(O)c1cccnc1 [olanzapine:nicotinic acid 1:1 salt]
Rate of reduce olanzapine-induced hyperglycemia (%) ([3]; acute i.p., dosage of olanzapine 5 mg/kg): 57.6%
Rate of reduce olanzapine-induced hyperglycemia (%) ([3]; acute i.p., dosage of olanzapine 10 mg/kg): 38.4%
Rate of reduce olanzapine-induced hyperglycemia (%) ([3]; acute oral, dosage of olanzapine 10 mg/kg): 50.5%
blood glucose levels during glucose tolerance test compared to vehicle ([4]; single i.p. dose, olanzapine 5 mg/kg or salt 6.97 mg/kg, glucose 1 g/kg i.p.): significantly higher than vehicle control group at 120 min after glucose challenge
blood glucose levels during glucose tolerance test compared to vehicle ([4]; single i.p. dose, olanzapine 10 mg/kg or salt 13.94 mg/kg, glucose 1 g/kg i.p.): significantly higher than vehicle control group at 120 min after glucose challenge and remained lower than the olanzapine (10 mg/kg) group at all time points
blood glucose levels during glucose tolerance test compared to vehicle ([4]; single oral dose, olanzapine 10 mg/kg, NA 3.94 mg/kg, mixture, or salt 13.94 mg/kg): high glucose levels only after 60 mins, before returning to normal glucose levels 120 min post glucose challenge
Recovery rate (%) (MK-801 treated mice; dosage of olanzapine 0.1 mg/kg): 47.9%
locomotor activity in MK-801 treated mice (MK-801 treated mice; oral olanzapine 0.1 mg/kg or nicotinic acid salt 0.14 mg/kg): significant decrease in MK-801-induced hyper-locomotion

O=C(O)c1cccnc1.OCCOCCN1CCN(C2=Nc3ccccc3Sc3ccccc32)CC1 [quetiapine:nicotinic acid 1:1 salt]
Carr Index [5]: 20%
Blood glucose level compared to vehicle after 120 min ([4]; GTT, dosage of quetiapine 20 mg/kg): 1.00
water solubility [1]: 262 mg/mL
Open-field test effect (formula [formula] not readable) (MK-801 treated mice; acute oral, quetiapine 10 mg/kg): 53.1%
locomotor activity in MK-801 treated mice (MK-801 treated mice; oral quetiapine 10 mg/kg or nicotinic acid salt […]): significant decrease in locomotion activity, compared with quetiapine group
